Test results published in PMC4666032, “KPT-330, a potent and selective exportin-1 (XPO-1) inhibitor, shows antitumor effects modulating the expression of cyclin D1 and survivin in prostate cancer models” (BMC Cancer, 2015).

Columns and labels:
Type in all cases: cell-based
[1] = test system: DU-AR; assay: Growth/viability assay, IC50 at 72 h; details: Homo sapiens, Fig. 2g
Source text: (§1) Four commercial (LnCaP, 22rv1, DU145 and PC3) and twelve non-commercial (LAPC-4 [44], CWR22, PCb2 [45], PC3Lymphnode, PC3M, PC3M-pro4 [46] and PC3M-Ln4 [47], LnCaP-104S [47], LnCaP104R1 [47], LnCaP-C81 [47], C4-2B [48], VCAP [49] and DuCaP [[49]) cell lines were selected for the in vitro experimental studies for their biological characteristics: LAPC-4 (Androgen receptor [AR] positive, androgen dependent with low Akt/mTOR activities, p53 wt); LnCaP (AR positive, androgen dependent with high Akt/mTOR activities, p53 wt); LnCaP-C81 and LnCaP-C4-2B (AR positive, androgen independent with high Akt/mTOR activities, p53 wt); 22rv1 (AR positive, androgen independent with low Akt/mTOR activities, p53 wt); PC3 (AR negative, with high Akt/mTOR activities and no p53 function (p53 del) and DU145 (AR negative, with low Akt/mTOR activities and mutant p53). PC3 and DU145 have been also transfected with AR to obtain PC3AR [50] and DU-AR [51]. Benign prostatic hyperplasia line (BPH1), and Prostatic epithelial lines (EPN and RWPE-1) were used as non-neoplastic controls. Cells were routinely cultured in appropriate medium supplemented with 10 % fetal bovine serum (FBS), 1 % pen-strep and 1 % L-glutamine (Invitrogen Corporation, Carlsbad, CA). To minimize the risk to work with misidentified and/or contaminated cell lines, DNA profiling was periodically carried out in-house to authenticate cell cultures. DNA was isolated from cell lines using a standard DNA isolation kit. STR profiling was performed by using GenePrint® 10 System (Promega Corporation, Madison, WI). An eight-capillary 3500 Genetic Analyzer (Applied Biosystems Life Technologies Europe BV, Monza, Italy) was used to separate and identify alleles using standard procedures. GenePrint® 10 System allows co-amplification and detection of eight human loci required by the guidelines ASN-0002. For non-commercial cell lines, the authentication process was carried out by comparing STR-fingerprints with those published by Adri van Bokhoven and co-workers. In addition, cell lines were stocked at very low passages and used at <15-20 subcultures.
(§2) Cells were seeded at a density of 2 x 10^4 cells/mL in 24-well plates. Cells were left to attach and grow in 5 % FCS DMEM for 24 h. After this time, cells were maintained in the appropriate culture conditions. Morphological controls were performed every day with an inverted phase-contrast photomicroscope (Nikon Diaphot, Tokyo, Japan) before cell trypsinization and counting. Cells were trypsinized and resuspended in 1.0 ml of saline, then counted using a NucleoCounter™ NC-100 (automated cell counter systems, Chemotec, Gydevang, Denmark). The effect on cell proliferation was measured by taking the mean cell number with respect to controls over time for the different treatment groups.
(§3) Viable cells were counted by using the NucleoCounter™ NC-100 (automated cell counter systems, Chemotec, Cydevang, DK). Apoptosis was evaluated by using Tali® Apoptosis Kit - Annexin V Alexa Fluor® 488 & Propidium Iodide-based, (Life Technologies Italia, Monza, Italy). Stained cells were then measured on a Tali® Image-Based Cytometer. Apoptosis was further confirmed by FACS analysis following the instructions of the manufacturer.
(§4) Six SINE analogs KPT-127, KPT-185, KPT-205, KPT-227, KPT251 and KPT-330 sharing a trifluoromethyl phenyl triazole scaffold, were investigated for their growth inhibitory and apoptotic potential in our PCa cell panel. Therefore, the effects of these XPO1 inhibitors were evaluated on the growth of PCa cell lines performing dose- and time-dependent studies. To examine the dose-dependent effects of these compounds, we treated cells with varying doses of the compounds (0, 1, 10, 50, 100, 500 and 1000 nM) and assessed viability at 72 hours after treatment. The IC50 for each compound was then calculated. […]

[2] = test system: LnCaP104R1; assay: Growth/viability assay, IC50 at 72 h; details: Homo sapiens; 104R1, Fig. 2g
Source text: as §1, §2, §3, §4

[3] = test system: CWR22; assay: Growth/viability assay, IC50 at 72 h; details: Homo sapiens; CWR22, Fig. 2g
Source text: as §1, §2, §3, §4

[4] = test system: RWPE-1; assay: Growth/viability assay, IC50 at 72 h; details: Homo sapiens; RWPE-1, Fig. 2g
Source text: as §1, §2, §3, §4

[5] = test system: PCb2; assay: Growth/viability assay, IC50 at 72 h; details: Homo sapiens; PCb2, Fig. 2g
Source text: as §1, §2, §3, §4

[6] = test system: PC3AR; assay: Growth/viability assay, IC50 at 72 h; details: Homo sapiens, PC3/AR, Fig. 2g
Source text: as §1, §2, §3, §4

[7] = test system: PC3M-Ln4; assay: Growth/viability assay, IC50 at 72 h; details: Homo sapiens; PC3M-Ln4, Fig. 2g
Source text: as §1, §2, §3, §4

[8] = test system: PC3M-pro4; assay: Growth/viability assay, IC50 at 72 h; details: Homo sapiens; PC3M-pro4, Fig. 2g
Source text: as §1, §2, §3, §4

[9] = test system: LAPC-4; assay: Growth/viability assay, IC50 at 72 h; details: Homo sapiens
Source text: as §1, §2, §3, §4

[10] = test system: 22rv1; assay: Growth/viability assay, IC50 at 72 h; details: Homo sapiens
Source text: as §1, §2, §3, §4

[11] = test system: DU145; assay: Growth/viability assay, IC50 at 72 h; details: Homo sapiens, DU-145; DU145, Fig. 2g
Source text: as §1, §2, §3, §4

[12] = test system: LnCaP-104S; assay: Growth/viability assay, IC50 at 72 h; details: Homo sapiens, Fig. 2g
Source text: as §1, §2, §3, §4

[13] = test system: C4-2B; assay: Growth/viability assay, IC50 at 72 h; details: Homo sapiens, Fig. 2g
Source text: as §1, §2, §3, §4

[14] = test system: BPH-1; assay: Growth/viability assay, IC50 at 72 h; details: Homo sapiens
Source text: as §1, §2, §3, §4

[15] = test system: EPN; assay: Growth/viability assay, IC50 at 72 h; details: Homo sapiens, Fig. 2g
Source text: as §1, §2, §3, §4

[16] = test system: LnCaP-C81; assay: Growth/viability assay, IC50 at 72 h; details: Homo sapiens; C-81, Fig. 2g
Source text: as §1, §2, §3, §4

[17] = test system: DuCaP; assay: Growth/viability assay, IC50 at 72 h; details: Homo sapiens, Fig. 2g
Source text: as §1, §2, §3, §4

[18] = test system: VCaP; assay: Growth/viability assay, IC50 at 72 h; details: Homo sapiens, Fig. 2g
Source text: as §1, §2, §3, §4

[19] = test system: PC3; assay: Growth/viability assay, IC50 at 72 h; details: Homo sapiens, PC-3
Source text: as §1, §2, §3, §4

[20] = test system: LnCaP; assay: Growth/viability assay, IC50 at 72 h; details: Homo sapiens
Source text: as §1, §2, §3, §4

[21] = test system: PCa cell lines; assay: Growth inhibition across the PCa cell panel; details: Homo sapiens; 72 hours, range across the cell panel; read-out: IC50 values, range over PCa cell lines
Source text: as §1, with “STR profiling was performed by using GenePrint® 10 System (Promega Corporation, Madison, WI). An eight-capillary 3500 Genetic Analyzer (Applied Biosystems Life Technologies Europe BV, Monza, Italy) was used to separate and identify alleles using standard procedures. GenePrint® 10 System allows co-amplification and detection of eight human loci required by the guidelines ASN-0002. For non-commercial cell lines, the authentication process was carried out by comparing STR-fingerprints with those published by Adri van Bokhoven and co-workers. In addition, cell lines were stocked at very low passages and used at <15-20 subcultures.” left out
Cells were seeded at a density of 2 x 10^4 cells/mL in 24-well plates. […] Cells were trypsinized and resuspended in 1.0 ml of saline, then counted using a NucleoCounter™ NC-100 (automated cell counter systems, Chemotec, Gydevang, Denmark). The effect on cell proliferation was measured by taking the mean cell number with respect to controls over time for the different treatment groups.
as §3, with “Apoptosis was further confirmed by FACS analysis following the instructions of the manufacturer.” left out
as §4

| IC50 [2] [nM] | IC50 [6] [nM] | IC50 [7] [nM] | IC50 [8] [nM] | IC50 ([10]; 22rv1, 72 hours, Fig. 2a-f) [nM] | IC50 ([10]; 22rv1, Fig. 2g) [nM] | IC50 [11] [nM] | IC50 [12] [nM] | IC50 [16] [nM] | Compound | IC50 [1] [nM] | IC50 [3] [nM] | IC50 [4] [nM] | IC50 [5] [nM] | IC50 ([9]; LAPC4, LAPC-4, Fig. 2g) [nM] | IC50 ([9]; LAPC4, 72 hours, Fig. 2a-f) [nM] | IC50 [13] [nM] | IC50 ([14]; BPH-1, BPH1, Fig. 2g) [nM] | IC50 ([14]; BPH-1, 72 hours, Fig. 2a-f) [nM] | IC50 [15] [nM] | IC50 [17] [nM] | further results |
| --- | --- | --- | --- | --- | --- | --- | --- | --- | --- | --- | --- | --- | --- | --- | --- | --- | --- | --- | --- | --- | --- |
| 160 | 144 | 80 | 180 | 204 ± 44 | 204 | 135 | 120 | 180 | COc1cc(-c2ncn(/C=C\c3nnco3)n2)cc(C(F)(F)F)c1 [KPT-225] | 112 | 180 | 1000 | 160 | 223 | 223 ± 31 | 170 | > 1000 | > 1000 | 1000 | 180 | IC50 [18]: 240 nM; IC50 ([19]; PC3, 72 hours, Fig. 2a-f): 122 ± 5 nM; IC50 ([19]; PC3, Fig. 2g): 122 nM; IC50 ([20]; 72 hours, Fig. 2a-f): 171 ± 30 nM; IC50 ([20]; Fig. 2g): 171 nM |
| 30 | 62 | 55 | 90 | 100 ± 10 | 100 | 55 | 50 | 20 | CC(C)OC(=O)/C=C\n1cnc(-c2cccc(Cl)c2)n1 [KPT-127] | 47 | 160 | 1000 | 44 | 201 | 201 ± 15 | 25 | > 1000 | > 1000 | 800 | 100 | IC50 [21]: 43 to 201 nM; IC50 [18]: 100 nM; IC50 ([19]; PC3, 72 hours, Fig. 2a-f): 59 ± 3 nM; IC50 ([19]; PC3, Fig. 2g): 59 nM; IC50 ([20]; 72 hours, Fig. 2a-f): 43 ± 4 nM; IC50 ([20]; Fig. 2g): 43 nM |
| 100 | 80 | 60 | 125 | 78 ± 19 | 78 | 90 | 80 | 160 | CC(C)OC(=O)/C=C\n1cnc(-c2cc(OC(C)C)cc(C(F)(F)F)c2)n1 [KPT-207] | 65 | 133 | 820 | 67 | 115 | 101 ± 1 | 144 | > 1000 | > 1000 | 750 | 120 | IC50 [18]: 130 nM; IC50 ([19]; PC3, 72 hours, Fig. 2a-f): 74 ± 5 nM; IC50 ([19]; PC3, Fig. 2g): 74 nM; IC50 ([20]; 72 hours, Fig. 2a-f): 113 ± 12 nM; IC50 ([20]; Fig. 2g): 301 nM |
| 260 | 233 | 200 | 330 | 189 ± 84 | 160 | 177 | 240 | 200 | COc1cc(-c2ncn(/C=C\C(=O)OC(C)C)n2)cc(C(F)(F)F)c1 [KPT-185] | 143 | 230 | 1000 | 215 | 321 | 321 ± 105 | 179 | > 1000 | > 1000 | 1000 | 270 | IC50 [21]: 180 to 700 nM; IC50 [18]: 400 nM; IC50 ([19]; PC3, 72 hours, Fig. 2a-f): 207 ± 44 nM; IC50 ([19]; PC3, Fig. 2g): 207 nM; IC50 ([20]; 72 hours, Fig. 2a-f): 268 ± 34 nM; IC50 ([20]; Fig. 2g): 268 nM |
